Measured values reported in patent publication US20220047596A1, “COMBINATION OF PARP INHIBITOR AND BRD4 INHIBITOR FOR THE TREATMENT OF CANCER” (Board of Regents, The University of Texas System, priority 2018, published 2022).

Assays:
PARP = details: cited from earlier work
cancer cell lines = test: Viability measurement (PrestoBlue, 96 hr) with CalcuSyn combination index; format: cell-based, Human; parameters: synergy with JQ1 at fixed PARPi concentration: dose or concentration left out as unconfirmed; details: for synergy with JQ1 at fixed PARPi concentration: 96 hr, HOC1 cells; for synergistic effects in combinations with BRD4i (JQ1): similar combination indices indicative of synergy
Experimental: (§1) Viability Measurements: Five thousand cells were seeded into sterile 96-well plates and treated with indicated drug combinations for 96 hr. DMSO was used as a vehicle. PrestoBlue® Cell Viability Reagent (Thermo Fisher Scientific) was used to assess cell viability. Background values from empty wells were subtracted and data normalized to vehicle-treated control. Synergistic effects between both compounds were calculated using the Chou-Talalay equation in CalcuSyn software, which takes into account both potency (IC50) and shape of the dose-effect curve. […], and CI>1 indicates antagonism.

CtIP = test: Western blot of CtIP and DNA damage response proteins; format: cell-based, Human
Experimental: Protein lysates were analyzed by RPPA in MDACC CCSG (The Cancer Center Support Grant) supported RPPA Core. Antibodies and approaches are described at the RPPA website (https://www.mdanderson.org/research/research-resources/core-facilities/functional-proteomics-rppa-core.html). For visualization, 2D and 3D, concentrations and time were averaged for each cell line. Heat map represents “rank-ordered” changes induced by BRD4i treatment, calculated by summing median-centered protein amount normalized to DMSO. Western Blot: To prepare whole cell lysates, cells were lysed with RIPA buffer (Thermo Fisher Scientific) supplemented with Halt™ Protease and Phosphatase Inhibitor (EDTA-free) Cocktail (Thermo Fisher Scientific). After thorough mixing and incubation at 4° C. for 10 min, lysates were centrifuged at 15,000 g at 4° C. for 15 min, and supernatants were collected. To prepare subcellular fraction of nuclear soluble and chromatin-bound fraction, cells were treated with indicated drugs, and then cells were collected. For fractionation, a Subcellular Protein Fractionation kit (Thermo Fisher Scientific) was used following the manufacturer's instructions. The protein content of the cell was determined, and the cellular lysates were separated by 10% SDS-PAGE, and electro-transferred onto polyvinylidene difluoride (PVDF) membranes. After being blocked with 5% non-fat milk in TBST, the membranes were incubated with primary antibodies at 4° C. overnight, followed by 1:2000 horseradish peroxidase (HRP)-conjugated secondary antibody (Abcam) for 1 hr. Bands were visualized using a Pierce™ ECL Western Blotting Substrate (Thermo Fisher Scientific). Primary antibodies used are listed in Key Resources Table.

HOC1 cells [1] = test: Alkaline comet assay; format: cell-based, Human; details: 200 nM each, 48 hr
Experimental: Alkaline Single-Cell Agarose Gel Electrophoresis (Comet) Assays: Alkaline comet assays were performed with Comet Assay Kit (Trevigen) using manufacturer's instructions. Briefly, cell suspensions were embedded in LM (low melting) Agarose and deposited on comet slides. Slides were incubated for 1 hr at 4° C. in lysis solution, followed by immersing slides in freshly prepared alkaline unwinding solution (pH >13) for 20 min at room temperature in the dark. Electrophoresis was carried out for 30 min at 21 V in electrophoresis solution (pH >13). Slides were then stained with SYBR™ Gold (Thermo Fisher Scientific). Tail DNA content was analyzed with Comet score 1.5 software. DNA strand breakage was expressed as “comet tail moment”. The tail moment was measured for a minimum of 50 cells per sample, and average damage from 3 independent experiments was calculated.

[2] = system: OVCAR8 and WU-BC3 PDX tumors; test: IHC of OVCAR8 and WU-BC3 PDX tumors at study termination; parameters: species or system mice; details: mouse, in vivo
Experimental: Immunohistochemical Staining (IHC) Tissues were fixed in 10% formalin overnight and embedded in paraffin. […] paraffin embedded sections were first deparaffinized in xylene. IHC were carried out with EnVision Detection Systems HRP. Rabbit/Mouse (DAB+) kit (Agilent) following manufacturer's instructions. Endogenous peroxidase was blocked by incubation with 0.3% hydrogen peroxide for 15 min. Antigen retrieval was performed by boiling the slides in citrate buffer (10 mM, pH 6.0) in a water bath for […]. Slides were rinsed in PBS Tween 0.05% and blocked for […] with 5% bovine serum albumin (BSA). Slide were incubated overnight at 4° C. with primary antibodies (anti-BRD4,
#13440S, 1:200; anti-CtIP, #9201S, 1:200 from Cell Signaling Technology; anti-RAD51, PC130, 1:100; anti-g-H2AX (Ser139), clone JBW301, 1:500 from Millipore Corp; and anti-pRPA32(S4/8), A300-245A, 1:1000 from Bethyl Laboratories), followed by 1 hr with Labelled Polymer-HRP at room temperature. Negative controls were treated identically, but without primary antibody. Subsequently, slides were incubated with DAB+ Chromogen. Slides were counterstained with hematoxylin. After mounting, slides were observed under microscope and photographed.
OVCAR8 Xenografts: 3×10^6 OVCAR8 cells were injected s.c. into mouse flanks in a 1:1 mix of PBS and Matrigel. […] Tumor volumes were calculated using […]. […]

U2OS DR-GFP cells = test: U2OS DR-GFP HR reporter assay; format: cell-based, Human; details: 100 nM for 24 hr, then I-Sce1 for 48 hr
Text: HR Repair Analysis: U2OS DR-GFP cells contain a single copy of the HR repair reporter substrate DR-GFP, which contains two nonfunctional GFP open reading frames, including one GFP-coding sequence that is interrupted by a recognition site for the I-SceI endonuclease. Expression of I-SceI leads to formation of a DSB in the I-SceI GFP allele, which can be repaired by HR using the nearby GFP sequence lacking the N- and C-termini, thereby producing functional GFP that can be detected by flow cytometry. […] Then, cells were transfected with a plasmid expressing I-SceI (pCBASce) for 48 hr. Cells transfected with an empty vector were used as a negative control. GFP-expressing plasmid (pEGFP-C1) was used for transfection efficiency control. Flow cytometry analysis was performed to detect GFP^+ cells using FACScalibur with CellQuest software (Becton Dickinson). The repair efficiency was scored as the percentage of GFP^+ cells.

HRD gene signature = HRD gene signature score applied to public transcriptional profiling data; details: human or murine tumors; GEO datasets
Text: Microarray Analysis and IPA Analysis: Gene expression datasets of GSE29799 (Zuber et al., 2011), GSE66048 (Ambrosini et al., 2015), GSE44929 (Love′ n et al., 2013), GSE85840 (Rhyasen et al., 2016), GSE31365 (Delmore et al., 2011), and GSE43392 (Puissant et al., 2013) were downloaded from Gene Expression Omnibus (GEO) (https://www.ncbi.nlm.nih.gov/geo). Raw data were subjected to intensity normalization using affy package in R (Bioconductor), followed by log transformation and quantile normalization. Normalized data were checked for quality and determined to be free of outliers by analysis using box plots, density plots and MA plots. Differential expression genes after BRD4 inhibition were calculated using a linear model provided by the limma package in R based on the cutoffs: 2 for absolute fold change, 0.05 for p value.
HRD Score Acquisition from HRD Signature HRD signature consisting of 230 differentially expressed genes was obtained as previously described (Peng et al., 2014). Normalized gene expression data (GSE29799, GSE66048, GSE44929, GSE85840, GSE31365, and GSE43392) after BRD4 inhibition were subjected to unsupervised clustering with these 230 genes. HRD scores were determined by calculating the Pearson's correlations between median centered gene expression levels for HRD signature and gene expression levels for a given sample (Peng et al., 2014).

HOC1 cells [3] = test: RPA and RAD51 foci immunofluorescence; format: cell-based, Human; details: for RAD51 nuclear foci: after PARPi or IR, compared with vehicle
Experimental: Immunofluorescence Staining and Microscopy: Briefly, cells were washed with PBS and fixed with 4% paraformaldehyde for 5 min, followed by permeabilization with 0.5% NP-40 and 1% Triton X-100 for 10 min Cells were then blocked with 5% FBS for 30 min and incubated with primary antibody (anti-RAD51, PC130, 1:100; anti-g-H2AX (Ser139), clone JBW301, 1:1000 from Millipore Corp; anti-RPA32, ab2175, 1:500 from Abcam) for 2 hr, followed by secondary antibody incubation for 1 hr at room temperature. Slides were sealed in mounting medium containing DAPI (Vector Laboratories, H1200) for further image acquisition. TE-2000 imaging acquisition system (Nikon) equipped with a 60× objective lens was used to capture images. Stained was quantified by ImageJ.

[4] = system: CtIP promoter and enhancer; test: ChIP-qPCR at CtIP promoter and enhancer; format: cell-based, Human; details: HOC1; 200 nM, 24 hr
Experimental: Chromatin Immunoprecipitation (ChIP-qPCR): ChIP assays were performed with EZ-Magna ChIP™ A/G Chromatin Immunoprecipitation Kit (Millipore Corp) as described in manufacturer's instructions. Briefly, cells were crosslinked with 1% formaldehyde. After cell lysis, isolated nuclei were subjected to sonication for chromatin fragmentation. Sheared chromatin was diluted in diluted buffer, and divided into aliquots for immunoprecipitation. Anti-BRD4 antibody (1:50, #13440S, Cell Signaling), anti-H3K27ac antibody (1:100, ab4729, Abcam), anti-H3K4M1 antibody (1:200, ab8895, Abcam), anti-Pol II antibody (1:100, sc-47701, Santa Cruz) or normal Rabbit IgG control (1:200, #2729, Cell Signaling) were added to chromatin samples, followed by overnight incubation at 4° C., with rotation. Antibody-chromatin complexes were captured using magnetic protein A/G beads. Purified DNAs were subjected to quantitative PCR (qPCR). All primers are list in Table 2.

HOC1 cells [5] = test: Detection of ssDNA by BrdU immunofluorescence under non-denaturing conditions; format: cell-based, Human; details: 4 hr after 10 Gy irradiation
Experimental: Detection of ssDNA by Immunofluorescence: Cells were grown in […] BrdU for two doubling times before irradiation. […] Cells were placed on ice 10 min before irradiation and kept on ice during the irradiation with 10 Gy. […] BrdU was stained (anti-BrdU, ab8152, 1:100 from Abcam) in non-denaturing conditions which enables detection of BrdU incorporated in ssDNA. TE-2000 imaging acquisition system (Nikon) equipped with a 60× objective lens was used to capture images. Stained was quantified by ImageJ.

DT40 cells = test: Viability dose response in DT40 WT and PARP1-/- cells; format: cell-based, Chicken
Experimental: as §1

OVCAR3 xenografts = test: OVCAR3 xenograft; format: in vivo, mice; details: Olaparib 100 mg/kg, AZD5153 2.5 mg/kg, oral gavage, daily, 35 days
Experimental: 6 weeks old female C.B-17 scid mice were purchased from Charles River Laboratories and used for OVCAR3 xenografts. Tumor cells were injected into female mice of approximately 8-10 weeks of age. All mice were housed under pathogen-free conditions at AstraZeneca AAALAC accredited facility. All animal experiments were conducted in compliance with the National Institute of Health guidelines for animal research and approved by the Institutional Animal Care and Use Committee of AstraZeneca.
OVCAR3 Xenograft: […] OVCAR3 cells were injected subcutaneously in the right flank of mice. Mice were randomized based on tumor volumes using stratified sampling and enrolled into control and treatment groups. Dosing began when mean tumor size reached approximately 200 mm^3 and continued for 35 days.

[6] = Toxicity analysis in the T127 model (blood counts, serum chemistry); format: in vivo, mice; details: compared with the vehicle group
Text: Mice were sacrificed when tumor diameter reached maximum limits of 2.5 cmat Day 22 for tissue harvest and blood collection 3 hr after the final treatment.

## CNCc1ccc(-c2[nH]c3cc(F)cc4c3c2CCNC4=O)cc1 [Rucaparib]
PARP
  PARP trapping activity: intermediate in activity

## C[C@]1(c2nc3c(C(N)=O)cccc3[nH]2)CCCN1 [ABT888]
Cancer cell lines
  synergy with JQ1 at fixed PARPi concentration: synergized with JQ1
  synergistic effects in combinations with BRD4i (JQ1): synergistic effects were maintained
PARP
  PARP trapping activity: weakest
  concentration required for PARP trapping: 50 mM

## Cc1sc2c(c1C)C(c1ccc(Cl)cc1)=N[C@@H](CC(=O)OC(C)(C)C)c1nnc(C)n1-2 [JQ1]
CtIP; 200 nM, 48 hr, HeyA8, OVCAR8, HOC7 cells
  expression of other MRN complex proteins: did not markedly alter
CtIP; HOC1 and HeyA8 cells, dose and time course
  CtIP and pRPA32 (S4/8) protein: decreased CtIP and phosphorylated RPA32
CtIP; HeyA8 and HOC7, 200 nM, 48 hr
  RAD51 levels: modestly decreased
CtIP; MCAS, 200 nM, 48 hr
  BRCA1 levels: modestly decreased
CtIP; all lines assessed, 200 nM, 48 hr
  CtIP protein: consistently decreased
Cancer cell lines; A2780CP_R, OAW42_R and OC316_R
  resensitization of PARPi-resistant cells to PARPi: resensitized
Cancer cell lines; BRCA1 knockdown MCF10A, BRCA1 mutant UWB1.289 and COV362 cells
  PARPi resistance mediated by 53BP1 knockdown: reversed resistance
HOC1 cells [1]
  DNA damage (comet assay): modestly induced DNA damage
[2]
  CtIP and pRPA32 (S4/8) (IHC): decreased
  gH2AX (IHC): increased
U2OS DR-GFP cells
  HR repair (percentage of GFP+ cells): attenuated HR repair
HRD gene signature
  HRD score: increased HRD score
HOC1 cells [3]
  RAD51 nuclear foci: decreased RAD51 nuclear foci
HOC1 cells [3]; in response to PARPi or IR
  RPA focus formation: severely impaired
[4]
  BRD4 association with the CtIP promoter and enhancer: decreased
  H3K27Ac, H3K4Me1 at the CtIP promoter and enhancer: reduced
  association of RNA Pol-II with the CtIP promoter and enhancer: decreased association
HOC1 cells [5]
  formation of ssDNA: significantly reduced

## Cn1ncnc1[C@H]1c2n[nH]c(=O)c3cc(F)cc(c23)N[C@@H]1c1ccc(F)cc1 [BMN673]
Cancer cell lines
  synergy with JQ1 at fixed PARPi concentration: synergized with JQ1
Cancer cell lines; OAW42, A2780CP, A2780, UWB1.289, OC316, ARK1, HCC1187, BT20, MDA-MB-436
  sensitivity of cell lines to PARPi alone: highly sensitive
HOC1 cells [1]
  DNA damage (comet assay): modestly induced DNA damage
DT40 cells
  sensitivity of PARP1-/- DT40: resistant
PARP
  PARP trapping activity: most active

## COc1nnc2ccc(N3CCC(c4ccc(OCCN5CCN(C)C(=O)[C@H]5C)cc4)CC3)nn12 [AZD5153]
OVCAR3 xenografts
  tumor growth inhibitions (TGI): 83%
U2OS DR-GFP cells
  HR repair (percentage of GFP+ cells): attenuated HR repair
HRD gene signature
  HRD score: increased HRD score
HOC1 cells [3]
  RAD51 nuclear foci: decreased RAD51 nuclear foci
[6]
  numbers of white blood cells: slight decrease but remained in the normal range

## NC(=O)c1cccc2cn(-c3ccc([C@@H]4CCCNC4)cc3)nc12 [Niraparib]
PARP
  PARP trapping activity: intermediate in activity

## O=C(c1cc(Cc2n[nH]c(=O)c3ccccc23)ccc1F)N1CCN(C(=O)C2CC2)CC1 [Olaparib]
Cancer cell lines
  synergy with JQ1 at fixed PARPi concentration: synergized with JQ1
  synergistic effects in combinations with BRD4i (JQ1): synergistic effects were maintained
OVCAR3 xenografts
  tumor growth inhibitions (TGI): 35%
